Read-outs that look alike come from different tables or passages of the source.
Tests used:
NS3/NS4 complexes = NS3/NS4 complexes (Hepatitis C virus genotype 1a, UniProt P27958); assay: NS3/NS4 inhibition activity (IC50); type: biochemical
Description: NS3-NS4 inhibition activity can be determined using known assay methods. For example, NS3/NS4 complexes may be formed and inhibitory concentrations of test compounds determined as described in U.S. Patent Application Publication Number 2007/0054842 paragraph numbers 1497-1509, which is incorporated herein by reference in its entirety. Similarly, hepatitis C replicon EC50 may be determined using known assay methods such as described in U.S. Patent Application Publication Number 2007/0054842 paragraph numbers 1510-1515. Assays may be conducted at ambient temperature (23° C.) in assay buffer containing 50 mM Tris-HCl, pH 7.5, 15% glycerol, 0.6 mM Lauryldimethylamine Oxide (LDAO), 25 μM NS4A peptide, and 10 mM Dithiothreitol (DTT).

hepatitis C replicon = hepatitis C replicon EC50; type: cell-based; conditions: Hepatitis C virus
Description: NS3-NS4 inhibition activity can be determined using known assay methods.

[1] = Table 2, hepatitis C replicon, read-out: EC50
[2] = Table 3, hepatitis C replicon, read-out: EC50

Chain of NS3/NS4 complexes (P27958 1027-1657): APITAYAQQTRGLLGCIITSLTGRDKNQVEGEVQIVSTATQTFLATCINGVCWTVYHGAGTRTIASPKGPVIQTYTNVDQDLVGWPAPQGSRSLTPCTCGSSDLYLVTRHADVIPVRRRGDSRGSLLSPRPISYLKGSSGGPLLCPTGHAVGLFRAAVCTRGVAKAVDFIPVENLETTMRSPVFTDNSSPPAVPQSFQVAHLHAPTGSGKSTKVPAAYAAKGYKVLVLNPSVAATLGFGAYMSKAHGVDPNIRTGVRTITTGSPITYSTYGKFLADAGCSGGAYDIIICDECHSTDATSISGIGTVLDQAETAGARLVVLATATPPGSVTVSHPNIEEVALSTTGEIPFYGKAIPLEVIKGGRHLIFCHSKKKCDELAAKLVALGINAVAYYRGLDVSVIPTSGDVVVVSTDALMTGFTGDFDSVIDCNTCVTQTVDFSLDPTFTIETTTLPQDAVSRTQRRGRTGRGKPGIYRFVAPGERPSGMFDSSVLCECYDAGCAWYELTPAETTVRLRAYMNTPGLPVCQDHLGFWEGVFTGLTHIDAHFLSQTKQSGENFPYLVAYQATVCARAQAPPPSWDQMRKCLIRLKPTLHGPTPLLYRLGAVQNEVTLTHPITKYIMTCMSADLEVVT
Chain of NS3/NS4 complexes (P27958 1658-1711): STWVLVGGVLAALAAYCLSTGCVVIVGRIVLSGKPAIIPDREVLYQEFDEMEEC

Row | Compound | IC50 (NS3/NS4 complexes; Table 2, read-out: IC50) [µM] | EC50 (hepatitis C replicon; [1]) [µM] | IC50 (NS3/NS4 complexes; Table 3, read-out: IC50) [µM] | EC50 (hepatitis C replicon; [2]) [µM] | other results
1 | COc1ccc2c(O[C@@H]3C[C@H]4C(=O)N[C@]5(C(=O)NS(=O)(=O)C6(C)CC6)C[C@H]5/C=C\CCCCC[C@H](Nc5cc(F)c(F)c(F)c5)C(=O)N4C3)cc(-c3nc(C(C)C)cs3)nc2c1C [Compound 480] | < 0.01 | 0.01 to 0.075 | – | – | –
2 | CC1(S(=O)(=O)NC(=O)[C@@]23C[C@H]2/C=C\CCCCC[C@H](Nc2ccc(F)c(F)c2)C(=O)N2C[C@H](Oc4nc5ccccc5s4)C[C@H]2C(=O)N3)CC1 [Compound 341] | < 0.01 | 0.01 to 0.075 | – | – | –
3 | COc1ccc2c(O[C@@H]3C[C@H]4C(=O)N[C@]5(C(=O)NS(=O)(=O)C6(C)CC6)C[C@H]5/C=C\CCCCC[C@H](Nc5ccccc5F)C(=O)N4C3)cc(-c3nc(C(C)C)cs3)nc2c1C [Compound 492] | < 0.01 | 0.01 to 0.075 | – | – | –
4 | CC1(S(=O)(=O)NC(=O)[C@@]23C[C@H]2/C=C\CCCCC[C@H](Nc2ccc(F)cc2)C(=O)N2C[C@H](OC(=O)N4Cc5cccc(F)c5C4)C[C@H]2C(=O)N3)CC1 [Compound 1111] | – | – | < 0.01 | 0.01 to 0.1 | –
5 | CC1(S(=O)(=O)NC(=O)[C@@]23C[C@H]2/C=C\CCCCC[C@H](Nc2ccccc2)C(=O)N2C[C@H](Oc4nccc5ccccc45)C[C@H]2C(=O)N3)CC1 [Compound 221] | < 0.01 | 0.01 to 0.075 | – | – | –
6 | CC(C)n1c(O[C@@H]2C[C@H]3C(=O)N[C@]4(C(=O)NS(=O)(=O)C5(C)CC5)C[C@H]4/C=C\CCCCC[C@H](Nc4ccccc4)C(=O)N3C2)nc2c(F)cccc21 [Compound 469] | < 0.01 | < 0.01 | – | – | –
7 | CN(C)S(=O)(=O)NC(=O)[C@@]12C[C@H]1/C=C\CCCCC[C@H](NC(=O)OC(C)(C)C)C(=O)N1C[C@H](Oc3nc4ccccc4[nH]3)C[C@H]1C(=O)N2 [Compound 1144] | – | – | < 0.01 | > 0.1 | –
8 | O=C1N[C@]2(C(=O)O)C[C@H]2/C=C\CCCCC[C@H](Nc2ccc(Cl)cc2)C(=O)N2C[C@H](Oc3nc4ccccc4s3)C[C@@H]12 [Compound 331] | 0.075 to 0.5 | > 0.5 | – | – | –
9 | COc1ccc2c(O[C@@H]3C[C@H]4C(=O)N[C@]5(C(=O)NS(=O)(=O)C6CC6)C[C@H]5/C=C\CCCCC[C@H](Nc5ccc(F)cc5)C(=O)N4C3)cc(-c3nc(C(C)C)cs3)nc2c1C [Compound 409] | < 0.01 | < 0.01 | – | – | –
10 | CCn1c(O[C@@H]2C[C@H]3C(=O)N[C@]4(C(=O)NS(=O)(=O)C5(C)CC5)C[C@H]4/C=C\CCCCC[C@H](NC(=O)OC(C)(C)C)C(=O)N3C2)nc2ccccc21 [Compound 1048] | – | – | < 0.01 | < 0.01 | –
11 | COc1ccc2c(O[C@@H]3C[C@H]4C(=O)N[C@]5(C(=O)NS(=O)(=O)N(C)C)C[C@H]5/C=C\CCCCC[C@H](Nc5ccc(F)cc5)C(=O)N4C3)cc(-c3nc(C(C)C)cs3)nc2c1C [Compound 415] | < 0.01 | < 0.01 | – | – | –
12 | COc1ccc2c(O[C@@H]3C[C@H]4C(=O)N[C@]5(C(=O)NS(=O)(=O)C6(C)CC6)C[C@H]5/C=C\CCCCC[C@H](Nc5ccccc5C)C(=O)N4C3)cc(-c3nc(C(C)C)cs3)nc2c1C [Compound 472] | < 0.01 | 0.01 to 0.075 | – | – | –
13 | CO[C@@H]1C[C@H]2C(=O)N[C@]3(C(=O)NCCC(=O)NCc4ccccc4)C[C@H]3/C=C\CCCCC[C@H](NC(=O)OC(C)(C)C)C(=O)N2C1 [Compound 1062] | – | – | > 0.1 | > 0.1 | –
14 | CC1(S(=O)(=O)NC(=O)[C@@]23C[C@H]2/C=C\CCCCC[C@H](Nc2cc(F)cc(C(F)(F)F)c2)C(=O)N2C[C@H](OC(=O)N4Cc5cccc(F)c5C4)C[C@H]2C(=O)N3)CC1 [Compound 1100] | – | – | < 0.01 | < 0.01 | –
15 | COc1ccc2c(O[C@@H]3C[C@H]4C(=O)N[C@]5(C(=O)NS(=O)(=O)C6(C)CC6)C[C@H]5/C=C\CCCCC[C@H](Nc5ccc(F)cc5)C(=O)N4C3)cc(-c3nc(C(C)C)cs3)nc2c1C [Compound 362] | < 0.01 | < 0.01 | – | – | –
16 | Cc1ccc2nc(O[C@@H]3C[C@H]4C(=O)N[C@]5(C(=O)NS(=O)(=O)C6CC6)C[C@H]5/C=C\CCCCC[C@H](NC(=O)OC(C)(C)C)C(=O)N4C3)oc2c1 [Compound 1033] | – | – | < 0.01 | 0.01 to 0.1 | –
17 | CC(C)n1c(O[C@@H]2C[C@H]3C(=O)N[C@]4(C(=O)NS(=O)(=O)C5(C)CC5)C[C@H]4/C=C\CCCCC[C@H](Nc4cc(F)cc(C(F)(F)F)c4)C(=O)N3C2)nc2ccccc21 [Compound 376] | < 0.01 | < 0.01 | – | – | –

Row | Compound | IC50 (NS3/NS4 complexes; Table 2, read-out: IC50) [µM] | EC50 (hepatitis C replicon; [1]) [µM] | IC50 (NS3/NS4 complexes; Table 3, read-out: IC50) [µM] | EC50 (hepatitis C replicon; [2]) [µM] | other results
18 | CC1(S(=O)(=O)NC(=O)[C@@]23C[C@H]2/C=C\CCCCC[C@H](Nc2cc(F)c(F)c(F)c2)C(=O)N2C[C@H](OC(=O)N4Cc5cccc(F)c5C4)C[C@H]2C(=O)N3)CC1 [Compound 1108] | – | – | < 0.01 | 0.01 to 0.1 | –
19 | CCn1c(O[C@@H]2C[C@H]3C(=O)N[C@]4(C(=O)NS(=O)(=O)C5CC5)C[C@H]4/C=C\CCCCC[C@H](Nc4cc(F)cc(C(F)(F)F)c4)C(=O)N3C2)nc2ccccc21 [Compound 388] | < 0.01 | 0.01 to 0.075 | – | – | –
20 | CNC(=O)c1cccc(N[C@H]2CCCCC/C=C\[C@@H]3C[C@@]3(C(=O)NS(=O)(=O)C3(C)CC3)NC(=O)[C@@H]3C[C@@H](OC(=O)N4Cc5cccc(F)c5C4)CN3C2=O)c1 [Compound 1112] | – | – | < 0.01 | > 0.1 | –
21 | CC(C)(C)OC(=O)N[C@H]1CCCCC/C=C\[C@@H]2C[C@@]2(C(=O)NS(=O)(=O)C2(C)CC2)NC(=O)[C@@H]2C[C@@H](Oc3nc4ccccc4n3Cc3ccccc3)CN2C1=O [Compound 1050] | – | – | < 0.01 | 0.01 to 0.1 | –
22 | COc1ccc2c(O[C@@H]3C[C@H]4C(=O)N[C@]5(C(=O)NS(=O)(=O)N(C)C)C[C@H]5/C=C\CCCCC[C@H](Nc5ccccc5)C(=O)N4C3)cc(-c3nc(C(C)C)cs3)nc2c1C [Compound 412] | < 0.01 | < 0.01 | – | – | –
23 | CC1(S(=O)(=O)NC(=O)[C@@]23C[C@H]2/C=C\CCCCC[C@H](Nc2ccc4ccccc4c2)C(=O)N2C[C@H](Oc4nc5ccccc5s4)C[C@H]2C(=O)N3)CC1 [Compound 342] | < 0.01 | 0.075 to 0.5 | – | – | –
24 | COc1ccc2c(O[C@@H]3C[C@H]4C(=O)N[C@]5(C(=O)NS(=O)(=O)C6(C)CC6)C[C@H]5/C=C\CCCCC[C@H](Nc5cccc(F)c5)C(=O)N4C3)cc(-c3ccccc3)nc2c1 [Compound 242] | < 0.01 | < 0.01 | – | – | –
25 | CC1(S(=O)(=O)NC(=O)[C@@]23C[C@H]2/C=C\CCCCC[C@H](Nc2ccc(F)c(F)c2)C(=O)N2C[C@H](OC(=O)N4Cc5cccc(F)c5C4)C[C@H]2C(=O)N3)CC1 [Compound 1107] | – | – | < 0.01 | 0.01 to 0.1 | –
26 | O=C1N[C@]2(C(=O)O)C[C@H]2/C=C\CCCCC[C@H](Nc2ccc(Cl)c(Cl)c2)C(=O)N2C[C@H](Oc3nc4ccccc4s3)C[C@@H]12 [Compound 333] | 0.075 to 0.5 | > 0.5 | – | – | –
27 | COc1ccc2c(O[C@@H]3C[C@H]4C(=O)N[C@]5(C(=O)NS(=O)(=O)C6(C)CC6)C[C@H]5/C=C\CCCCC[C@H](Nc5cc(F)cc(F)c5)C(=O)N4C3)cc(-c3nc(C(C)C)cs3)nc2c1C [Compound 363] | < 0.01 | 0.01 to 0.075 | – | – | –
28 | COc1ccc2c(O[C@@H]3C[C@H]4C(=O)N[C@]5(C(=O)NS(=O)(=O)C6(C)CC6)C[C@H]5/C=C\CCCCC[C@H](Nc5cccc(OC(F)(F)F)c5)C(=O)N4C3)cc(-c3nc(C(C)C)cs3)nc2c1C [Compound 378] | < 0.01 | < 0.01 | – | – | –
29 | CC(C)(C)OC(=O)N[C@H]1CCCCC/C=C\[C@@H]2C[C@@]2(C(=O)NS(=O)(=O)C2CC2)NC(=O)[C@@H]2C[C@@H](Oc3nc4ccccc4o3)CN2C1=O [Compound 1029] | – | – | < 0.01 | 0.01 to 0.1 | –
30 | CC1(S(=O)(=O)NC(=O)[C@@]23C[C@H]2/C=C\CCCCC[C@H](Nc2cc(F)cc(C(F)(F)F)c2)C(=O)N2C[C@H](Oc4nc5ccc(Cl)cc5s4)C[C@H]2C(=O)N3)CC1 [Compound 351] | < 0.01 | 0.075 to 0.5 | – | – | –
31 | CC1(S(=O)(=O)NC(=O)[C@@]23C[C@H]2/C=C\CCCCC[C@H](Nc2cc(F)cc(C(F)(F)F)c2)C(=O)N2C[C@H](Oc4nc5ccc(Br)cc5s4)C[C@H]2C(=O)N3)CC1 [Compound 352] | < 0.01 | 0.01 to 0.075 | – | – | –
32 | CC(C)(C)OC(=O)N[C@H]1CCCCC/C=C\[C@@H]2C[C@@]2(C(=O)NCC(=O)NCc2ccccc2)NC(=O)[C@@H]2C[C@@H](OC(=O)N3Cc4cccc(F)c4C3)CN2C1=O [Compound 1053] | – | – | – | – | IC50 (NS3/NS4 complexes; IC50, Table 3): 0.01 to 0.1 µM; EC50 (hepatitis C replicon): > 0.1 µM
33 | COc1ccc2c(O[C@@H]3C[C@H]4C(=O)N[C@]5(C(=O)NS(=O)(=O)C6(C)CC6)C[C@H]5/C=C\CCCCC[C@H](Nc5cccc(NS(C)(=O)=O)c5)C(=O)N4C3)cc(-c3nc(C(C)C)cs3)nc2c1C [Compound 484] | – | 0.01 to 0.075 | – | – | –
34 | COc1ccc2c(O[C@@H]3C[C@H]4C(=O)N[C@]5(C(=O)NS(=O)(=O)C6(C)CC6)C[C@H]5/C=C\CCCCC[C@H](Nc5cccc(C(N)=O)c5)C(=O)N4C3)cc(-c3nc(C(C)C)cs3)nc2c1C [Compound 483] | – | < 0.01 | – | – | –

Source: US8048862B2, “Macrocyclic inhibitors of hepatitis C virus replication” (priority 2008, dated 2011)
